Tests used:
[1] = system: human MVICs; experiment: MVIC activation in vitro (SMA expression after 5HT stimulation); type: cell-based; conditions: for SMA expression on 5HT stimulation: 5HT 10 nM; for VIC activation associated with 5HTR activation: human MVICs in vitro, antagonists of 5HTR2A, 2B and SERT
Experimental: MVICs isolated from healthy controls and patients with LL, LS, SS gene polymorphisms were treated with […] 5HT for 6 days in the presence or absence of a combination of 5HT2A antagonist Ketanserin, 5HT2B antagonist SDZ, and SERT antagonist Fluoxetine. RNA was isolated and tested for SMA expression as a marker of MVIC activation.
MVICs were isolated form patients with LL, LS, or SS genotype and controls (N=5/group) and exposed to 5HT stimulation (10 nM) to measure MVICs activation by alpha smooth muscle actin (SMA) as previously described by Rachana et al. (Journal of cellular physiology 227(6): 2595-604, November 2011. PMCID: PMC3288540) and Poggio et al. (Cardiovascular research 98(3): 402-10, June 2013. PMCID: PMC3656614). A combination of 5HT2A, 2B and SERT antagonists was used to inhibit 5HT stimulation in the three different genotypes (LL, LS, SS) with 10 μM ketanserin, 1 μM SDZ SER-082, and 1 μM Fluoxitine. (FIG. 4). RNA extract was collected to detect SMA expression.

[2] = system: C57BL/6J mice; experiment: Chronic angiotensin II infusion, remodeling of the mitral valve tissue in mice; type: in vivo; conditions: 28 days chronic infusion; for ECM remodeling of MV leaflets / 5HTR2A, 5HTR2B and SERT expression in MV leaflets: AngII vs. saline; for ECM remodeling of MV leaflets: histology; for 5HTR2A, 5HTR2B and SERT expression in MV leaflets: immunohistochemistry
Excerpt: (A) Representative H&E staining of cross section of mice hearts harvested 28 days after saline or AngII chronic infusion. (B) Modified Movat Pentachrome staining of MV leaflets harvested 28 days after saline or AngII chronic infusion (Magnification 10× and 43×). (C) and (D) Immunohistochemistry staining of murine MV leaflets using anti-5HTR2A and anti-5HTR2B antibodies, respectively.
We have recently reported that reactive oxygen species (ROS) accumulation is leading aortic VICs activation ex vivo and in vitro with results showing that adenoviral delivery of antioxidant enzymes ameliorates aortic VICs activation. We therefore used our murine model based on chronic AngII infusion to reproduce ROS accumulation in the cardiac tissue (Branchetti et al., Cardiovasc Res. 2013; 100(2):316-324) to test whether we could provoke MV remodeling.

With NCCc1c[nH]c2ccc(O)cc12 [5HT, serotonin] the “SMA expression on 5HT stimulation” value ([1]; MVICs from patients with LL genotype) was “significant upregulation of SMA” and the “SMA expression on 5HT stimulation” value ([1]; MVICs from patients with SS and LS genotype) was “not responsive”.

With CNCCC(Oc1ccc(C(F)(F)F)cc1)c1ccccc1 (stereo not shown) [Fluoxetine] the “VIC activation associated with 5HTR activation” value (from here on “VIC activation associated”) [1] was “partially abrogate this effect”.

With O=C(c1ccc(F)cc1)C1CCN(CCn2c(=O)[nH]c3ccccc3c2=O)CC1 [Ketanserin] the “VIC activation associated” value [1] was “partially abrogate this effect”.

With CN1CC[C@@H]2CN3CCc4cccc(c43)[C@@H]2C1 [SDZ, SDZ SER-082] the “VIC activation associated” value [1] was “partially abrogate this effect”.

With “Angiotensin II (DRVYIHPF; Angiotensin-2; UniProt P11859 25-32, looked up) [AngII, chronically infused to induce ROS accumulation and MV remodeling in mice]” the “mitral valve cusp thickness” value ([2]; AngII treated vs. saline infused mice, p<0.01) was “increased”, the “ECM remodeling of MV leaflets” value [2] was “significant rearrangement of the ECM” and the “ECM remodeling of MV leaflets” value ([2]; listed as Angiotensin II) was “ECM remodeling”. For the same compound, the “5HTR2A, 5HTR2B and SERT expression in MV leaflets” value [2] was “increased 5HTR2A and 2B and SERT” and the “5HTR2A, 5HTR2B and SERT expression in MV leaflets” value ([2]; listed as Angiotensin II) was “increased 5HTR-2B/SERT expressions”.
